The values that follow come from US20240016822A1, “USE OF NK1 ANTAGONIST PRODRUG COMPOUND IN COMBINATION WITH 5-HT3 RECEPTOR ANTAGONIST” (Shanghai Shengdi Pharmaceutical Co., Ltd., priority 2020, published 2024).

Read-outs that look alike come from different tables or passages of the source.

A short description of data set [1]: Water solubility at different pH values. The format is physicochemical. As for the experimental part:
• 1.1 Preparation of reagent • Reagent: NaH2PO4·2H2O • 1.2 Preparation method
The preparation according to 100 mL specification is as follows: • pH=3.0: phosphate buffer: 100 mL of 2 mmol/L NaH2PO4, adjusted to pH 3.0 with 0.1 M H3PO4. • pH=4.0: phosphate buffer: 100 mL of 2 mmol/L NaH2PO4, […] 100 mL of 2 mmol/L Na2HPO4, adjusted to pH 9.0 with 0.1 M NaOH. • 1.3 Test method
A proper amount of a test compound was weighed, and the solution was added in small batches. The mixture was stirred until the test compound was dissolved. The content of the compound in the solution was determined. The data are shown in Table 1. • 2.1 Stability test of compound
1 mg of the sample was weighed and added to a vial. The vial was placed in a vacuum bag, which was vacuumized and placed in a container filled with allochroic silica gel. The container was sealed. Two parts were prepared in parallel. Adequate parts were prepared according to sampling time points, and the two parts for each sampling time point were placed at 4° C. and room temperature, respectively. The solubility of the compound of formula (I) was determined at different pH values.

Data set [2] deals with red blood cells (RBCs). Description: Hemolytic effect on rabbit red blood cell suspension. Particulars: 2% rabbit RBC suspension; test sample in PBS (pH 7.4 or pH 5), 0.4-2 mg/mL; concentration up to 2 mg/mL. It is filed as cell-based. As for the experimental part:
10 mL of red blood cells (RBCs) were randomly collected from the jugular vein or central auricular artery of a rabbit (EDTA whole blood), placed in a conical flask with glass beads, and shaken for 10 min to remove fibrinogen, resulting in defibrinated blood. 10 volumes of sodium chloride injection were added. The mixture was shaken uniformly and centrifuged at 1500 rpm for 10 min, and the supernatant was removed. […] The obtained red blood cells were prepared into 2% (v/v) suspension with sodium chloride injection for later use.
A test sample (the compound of formula (I)) was dissolved in PBS (pH 7.4 or pH 5), and the solution was filtered and prepared to the concentrations of 0.4 mg/mL, 0.8 mg/mL, 1.2 mg/mL, 1.6 mg/mL, and 2 mg/mL for later use.
A certain amount of the test sample solution was added to the above […] for testing in the supernatant.
The hemolytic effect of the compound provided by the present disclosure was determined by this method.
Rolapitant emulsion (formula: 4.4% polyethylene glycol 15-hydroxystearate, 1.1% medium chain triglyceride, and 0.66% soybean oil) was prepared by reference to the method described in CN102573475, and prepared with PBS to concentrations of 0.18 mg/mL, 0.09 mg/mL, 0.045 mg/mL, 0.023 mg/mL, 0.011 mg/mL, […] for later use.
The hemolytic effect was determined by the method described in Test Example 2.

A short description of data set [3]: Pharmacokinetic test in cynomolgus monkeys. The format is in vivo. Here is the method:
With cynomolgus monkeys as test animals, the plasma concentrations of the compound of formula (I) at different time points after administration by injection were determined by LC/MS/MS. The pharmacokinetic performance of the compound was studied in cynomolgus monkeys and its pharmacokinetic characteristics were evaluated.
A certain amount of the test compound was weighed and prepared into a solution at pH 4.0 with 20 mmol/L sodium dihydrogen phosphate for later use. • 1.1 Administration Intravenous drip, injection time: about 30 min, administration dose: 3.54 mg/kg, administration concentration: […], and administration volume: 5 mL/kg. • 1.2 Operation
Blood was collected from femoral vein before administration and 5 min, 0.25 h, 0.5 h, 1 h, 2 h, 4 h, 6 h, 8 h, 10 h and 24 h after administration, about 0.6 mL for each sample. The blood samples were anticoagulated with sodium heparin and placed on ice immediately after collection. The blood samples were placed in marked centrifuge tubes after collection, and plasma was isolated by centrifugation (centrifugation conditions: 2200 g of centrifugal force, 10 min, 2-8° C.).
The contents of the compound of formula (I) and rolapitant in the plasma samples were determined by LC/MS/MS. • 1.3 Pharmacokinetic parameters

As usually defined, the solubility is the dissolved amount per volume that the medium holds. By half-life is commonly meant the time needed for the level to fall by half in the phase considered. Lower therefore signals rapid decline. Turning to `C[C@@H](OC[C@@]1(c2ccccc2)CC[C@]2(CCC(=O)N2)CN1C(=O)OCOP(=O)(O)O)c1cc(C(F)(F)F)cc(C(F)(F)F)c1` [compound of formula (I)], the solubility in data set [1] (pH 7.4, thermodynamic from solid, pH 7.4, read-out: Saturated solubility) stood at 19.8 mg/mL; in data set [1] (pH 7.4, thermodynamic from solid, pH 7.4, read-out: Solubility), 26 mg/mL; in data set [1] (phosphate buffer, pH 9, aqueous buffer, thermodynamic from solid, pH 9.0, read-out: Saturated solubility), 21.4 mg/mL; in data set [1] (phosphate buffer, pH 9, aqueous buffer, thermodynamic from solid, pH 9.0, read-out: Solubility) it was 28 mg/mL. Moreover, in data set [2], the Hemolytic effect entry is “no hemolytic effect”. This compound showed a half-life in data set [3] (cynomolgus monkey, analyte compound of formula (I) in plasma, intravenous drip about 30 min, 3.54 mg/kg compound of formula (I)) of 28.2 min. Also, the AUC(0-t) in data set [3] (cynomolgus monkey, analyte compound of formula (I) in plasma, intravenous drip about 30 min, 3.54 mg/kg compound of formula (I), read-out: AUC0-24 h) was found to be 1430 ng·h/mL. Besides, the MRT inf in data set [3] (cynomolgus monkey, analyte compound of formula (I) in plasma, intravenous drip about 30 min, 3.54 mg/kg compound of formula (I), read-out: MRT 0-∞) was found to be 15.6 min. Also, the “Conversion of prodrug into active metabolite rolapitant” value in data set [3] (cynomolgus monkeys, intravenous drip 3.54 mg/kg) is “quickly converted into the active metabolite rolapitant”.
